# Active and inactive are the calls of the source. The calls are words filed in the database; no cut-off is given here.
# Experiments:
# Providencia stuartii [1] = experiment: Potentiation of meropenem-induced antibacterial activity against VIM1 carbapenemase producing multidrug-resistant Providencia stuartii 67 clinical isolate at 1:8 meropenem:compound ratio by checkerboard method; assay type: functional
# Enterobacter cloacae = experiment: Potentiation of meropenem-induced antibacterial activity against VIM4 carbapenemase producing multidrug-resistant Enterobacter cloacae 102 clinical isolate at 1:8 meropenem:compound ratio by checkerboard method; assay type: functional
# Pseudomonas aeruginosa [2] = experiment: Antibacterial activity against VIM2 carbapenemase producing multidrug-resistant Pseudomonas aeruginosa 12 clinical isolate up to 512 mg/L by broth microtiter dilution method; assay type: functional, organism-based
# Pseudomonas aeruginosa [3] = experiment: Antibacterial activity against VIM2 carbapenemase producing multidrug-resistant Pseudomonas aeruginosa 6 clinical isolate up to 512 mg/L by broth microtiter dilution method; assay type: functional, organism-based
# Pseudomonas aeruginosa [4] = experiment: Potentiation of meropenem-induced antibacterial activity against VIM2 carbapenemase producing multidrug-resistant Pseudomonas aeruginosa 47 clinical isolate assessed as MIC of meropenem at 1:8 meropenem:compound ratio by broth microtiter dilution method; assay type: functional
# Pseudomonas aeruginosa [5] = experiment: Potentiation of meropenem-induced antibacterial activity against VIM2 carbapenemase producing multidrug-resistant Pseudomonas aeruginosa 11 clinical isolate at 1:8 meropenem:compound ratio by checkerboard method; assay type: functional
# Pseudomonas aeruginosa [6] = experiment: Potentiation of meropenem-induced antibacterial activity against VIM2 carbapenemase producing multidrug-resistant Pseudomonas aeruginosa 6 clinical isolate at 1:8 meropenem:compound ratio by checkerboard method; assay type: functional
# Pseudomonas aeruginosa [7] = experiment: Antibacterial activity against VIM2 carbapenemase producing multidrug-resistant Pseudomonas aeruginosa 11 clinical isolate up to 512 mg/L by broth microtiter dilution method; assay type: functional, organism-based
# Pseudomonas aeruginosa [8] = experiment: Potentiation of meropenem-induced antibacterial activity against VIM2 carbapenemase producing multidrug-resistant Pseudomonas aeruginosa GR57 clinical isolate assessed as MIC of meropenem at 1:8 meropenem:compound ratio by broth microtiter dilution method; assay type: functional
# Pseudomonas aeruginosa [9] = experiment: Potentiation of meropenem-induced antibacterial activity against VIM2 carbapenemase producing multidrug-resistant Pseudomonas aeruginosa 8 clinical isolate at 1:8 meropenem:compound ratio by checkerboard method; assay type: functional
# Klebsiella pneumoniae [10] = experiment: Potentiation of meropenem-induced antibacterial activity against VIM1 carbapenemase producing multidrug-resistant Klebsiella pneumoniae GR54 clinical isolate assessed as MIC of meropenem at 1:8 meropenem:compound ratio by broth microtiter dilution method; assay type: functional
# Providencia stuartii [11] = experiment: Potentiation of meropenem-induced antibacterial activity against VIM1 carbapenemase producing multidrug-resistant Providencia stuartii 70 clinical isolate at 1:8 meropenem:compound ratio by checkerboard method; assay type: functional
# Pseudomonas aeruginosa [12] = experiment: Antibacterial activity against VIM2 carbapenemase producing multidrug-resistant Pseudomonas aeruginosa 8 clinical isolate up to 512 mg/L by broth microtiter dilution method; assay type: functional, organism-based
# Pseudomonas aeruginosa [13] = experiment: Antibacterial activity against VIM2 carbapenemase producing multidrug-resistant Pseudomonas aeruginosa GR62 clinical isolate up to 512 mg/L by broth microtiter dilution method; assay type: functional, organism-based
# Pseudomonas aeruginosa [14] = experiment: Potentiation of meropenem-induced antibacterial activity against VIM2 carbapenemase producing multidrug-resistant Pseudomonas aeruginosa 3 clinical isolate assessed as MIC of meropenem at 1:8 meropenem:compound ratio by broth microtiter dilution method; assay type: functional
# Pseudomonas aeruginosa [15] = experiment: Antibacterial activity against VIM2 carbapenemase producing multidrug-resistant Pseudomonas aeruginosa 50 clinical isolate up to 512 mg/L by broth microtiter dilution method; assay type: functional, organism-based
# Escherichia coli [16] = experiment: Potentiation of meropenem-induced antibacterial activity against VIM4 carbapenemase producing multidrug-resistant Escherichia coli 98 clinical isolate assessed as MIC of meropenem at 1:8 meropenem:compound ratio by broth microtiter dilution method; assay type: functional
# Escherichia coli [17] = experiment: Potentiation of meropenem-induced antibacterial activity against VIM4 carbapenemase producing multidrug-resistant Escherichia coli 98 clinical isolate at 1:8 meropenem:compound ratio by checkerboard method; assay type: functional
# [18] = Toxicity in Galleria mellonella larvae assessed as survival rate up to 80 mg/kg measured at 96 hrs; assay type: organism-based; settings: in vivo
# Escherichia coli [19] = experiment: Antibacterial activity against VIM4 carbapenemase producing multidrug-resistant Escherichia coli 98 clinical isolate up to 512 mg/L by broth microtiter dilution method; assay type: functional, organism-based
# Klebsiella oxytoca = experiment: Potentiation of meropenem-induced antibacterial activity against VIM4 carbapenemase producing multidrug-resistant Klebsiella oxytoca 95 clinical isolate at 1:8 meropenem:compound ratio by checkerboard method; assay type: functional
# Pseudomonas aeruginosa [20] = experiment: Potentiation of meropenem-induced antibacterial activity against VIM2 carbapenemase producing multidrug-resistant Pseudomonas aeruginosa 15 clinical isolate at 1:8 meropenem:compound ratio by checkerboard method; assay type: functional
# Pseudomonas aeruginosa [21] = experiment: Potentiation of meropenem-induced antibacterial activity against VIM2 carbapenemase producing multidrug-resistant Pseudomonas aeruginosa GR57 clinical isolate infected in Galleria mellonella larvae assessed as relative risk of survival at 4.8 mg/kg measured at 96 hrs relative to control; assay type: functional
# Pseudomonas aeruginosa [22] = experiment: Potentiation of meropenem-induced antibacterial activity against VIM2 carbapenemase producing multidrug-resistant Pseudomonas aeruginosa GR58 clinical isolate assessed as MIC of meropenem at 1:8 meropenem:compound ratio by broth microtiter dilution method; assay type: functional
# Pseudomonas aeruginosa [23] = experiment: Potentiation of meropenem-induced antibacterial activity against VIM2 carbapenemase producing multidrug-resistant Pseudomonas aeruginosa 50 clinical isolate at 1:8 meropenem:compound ratio by checkerboard method; assay type: functional
# [24] = Inhibition of beta-lactamase VIM-2 (unknown origin)
# Pseudomonas aeruginosa [25] = experiment: Antibacterial activity against VIM2 carbapenemase producing multidrug-resistant Pseudomonas aeruginosa 30 clinical isolate up to 512 mg/L by broth microtiter dilution method; assay type: functional, organism-based
# Klebsiella pneumoniae [26] = experiment: Potentiation of meropenem-induced antibacterial activity against VIM4 carbapenemase producing multidrug-resistant Klebsiella pneumoniae 120 clinical isolate at 1:8 meropenem:compound ratio by checkerboard method; assay type: functional
# Pseudomonas aeruginosa [27] = experiment: Potentiation of meropenem-induced antibacterial activity against VIM2 carbapenemase producing multidrug-resistant Pseudomonas aeruginosa GR62 clinical isolate at 1:8 meropenem:compound ratio by checkerboard method; assay type: functional
# Pseudomonas aeruginosa [28] = experiment: Potentiation of meropenem-induced antibacterial activity against VIM2 carbapenemase producing multidrug-resistant Pseudomonas aeruginosa 30 clinical isolate at 1:8 meropenem:compound ratio by checkerboard method; assay type: functional
# Klebsiella pneumoniae [29] = experiment: Potentiation of meropenem-induced antibacterial activity against VIM4 carbapenemase producing multidrug-resistant Klebsiella pneumoniae 128 clinical isolate at 1:8 meropenem:compound ratio by checkerboard method; assay type: functional
# Klebsiella pneumoniae [30] = experiment: Potentiation of meropenem-induced antibacterial activity against VIM1 carbapenemase producing multidrug-resistant Klebsiella pneumoniae 177 clinical isolate assessed as MIC of meropenem at 1:8 meropenem:compound ratio by broth microtiter dilution method; assay type: functional
# Pseudomonas aeruginosa [31] = experiment: Potentiation of meropenem-induced antibacterial activity against VIM2 carbapenemase producing multidrug-resistant Pseudomonas aeruginosa 14 clinical isolate assessed as MIC of meropenem at 1:8 meropenem:compound ratio by broth microtiter dilution method; assay type: functional
# Pseudomonas aeruginosa [32] = experiment: Antibacterial activity against VIM2 carbapenemase producing multidrug-resistant Pseudomonas aeruginosa GR58 clinical isolate up to 512 mg/L by broth microtiter dilution method; assay type: functional, organism-based
# Klebsiella pneumoniae [33] = experiment: Potentiation of meropenem-induced antibacterial activity against VIM4 carbapenemase producing multidrug-resistant Klebsiella pneumoniae 196 clinical isolate assessed as MIC of meropenem at 1:8 meropenem:compound ratio by broth microtiter dilution method; assay type: functional
# Pseudomonas aeruginosa [34] = experiment: Potentiation of meropenem-induced antibacterial activity against VIM2 carbapenemase producing multidrug-resistant Pseudomonas aeruginosa GR58 clinical isolate at 1:8 meropenem:compound ratio by checkerboard method; assay type: functional
# Klebsiella pneumoniae [35] = experiment: Potentiation of meropenem-induced antibacterial activity against VIM4 carbapenemase producing multidrug-resistant Klebsiella pneumoniae 101 clinical isolate assessed as MIC of meropenem at 1:8 meropenem:compound ratio by broth microtiter dilution method; assay type: functional
smiles,measurement,setting,value
O=C(O)/C(S)=C/c1c(Cl)ccc(Cl)c1Cl,fractional inhibitory concentration index (FICI),Providencia stuartii [1],0.14
same,fractional inhibitory concentration index (FICI),Enterobacter cloacae,0.19
same,Activity,Pseudomonas aeruginosa [2],inactive
same,Activity,Pseudomonas aeruginosa [3],inactive
same,MIC,Pseudomonas aeruginosa [4],1 µg/mL
same,fractional inhibitory concentration index (FICI),Pseudomonas aeruginosa [5],0.09
same,fractional inhibitory concentration index (FICI),Pseudomonas aeruginosa [6],0.38
same,Activity,Pseudomonas aeruginosa [7],inactive
same,MIC,Pseudomonas aeruginosa [8],4 µg/mL
same,fractional inhibitory concentration index (FICI),Pseudomonas aeruginosa [9],0.38
same,MIC,Klebsiella pneumoniae [10],4 µg/mL
same,fractional inhibitory concentration index (FICI),Providencia stuartii [11],0.14
same,Activity,Pseudomonas aeruginosa [12],inactive
same,Activity,Pseudomonas aeruginosa [13],inactive
same,MIC,Pseudomonas aeruginosa [14],8 µg/mL
same,Activity,Pseudomonas aeruginosa [15],inactive
same,MIC,Escherichia coli [16],2 µg/mL
same,fractional inhibitory concentration index (FICI),Escherichia coli [17],0.16
same,survival at 96 h,[18],100%
same,Activity,Escherichia coli [19],inactive
same,fractional inhibitory concentration index (FICI),Klebsiella oxytoca,0.38
same,fractional inhibitory concentration index (FICI),Pseudomonas aeruginosa [20],0.5
same,fold change (FC),Pseudomonas aeruginosa [21],0.28
same,MIC,Pseudomonas aeruginosa [22],8 µg/mL
same,fractional inhibitory concentration index (FICI),Pseudomonas aeruginosa [23],0.38
same,IC50,[24],300 nM
same,Activity,Pseudomonas aeruginosa [25],inactive
same,fractional inhibitory concentration index (FICI),Klebsiella pneumoniae [26],0.25
same,fractional inhibitory concentration index (FICI),Pseudomonas aeruginosa [27],0.38
same,fractional inhibitory concentration index (FICI),Pseudomonas aeruginosa [28],0.25
same,fractional inhibitory concentration index (FICI),Klebsiella pneumoniae [29],0.27
same,MIC,Klebsiella pneumoniae [30],1 µg/mL
same,MIC,Pseudomonas aeruginosa [31],2 µg/mL
same,Activity,Pseudomonas aeruginosa [32],inactive
same,MIC,Klebsiella pneumoniae [33],1 µg/mL
same,fractional inhibitory concentration index (FICI),Pseudomonas aeruginosa [34],0.38
same,MIC,Klebsiella pneumoniae [35],2 µg/mL
